# Source: ChEMBL document CHEMBL1921763, “Synthesis and SAR of 2-phenoxypyridines as novel c-Jun N-terminal kinase inhibitors” (Bioorg Med Chem Lett, 2011)
# Assays:
# [1] = target: Mitogen-activated protein kinase 10 (Homo sapiens, UniProt P53779); test: Inhibition of JNK3 using biotinylated-ATF2 as substrate by HTRF assay
# [2] = target: Mitogen-activated protein kinase 8 (Homo sapiens, UniProt P45983); test: Inhibition of JNK1 using biotinylated-ATF2 as substrate by HTRF assay
# [3] = Oral bioavailability in Sprague-Dawley rat at 2 mg/kg; format: ADME, organism-based; conditions: in vivo
# [4] = Half life in Sprague-Dawley rat at 1 mg/kg, iv and 2 mg/kg, po; format: ADME, organism-based; conditions: in vivo
# [5] = AUC in Sprague-Dawley rat at 1 mg/kg, iv and 2 mg/kg, po; format: ADME, organism-based; conditions: plasma
# [6] = Plasma clearance in Sprague-Dawley rat at 1 mg/kg, iv and 2 mg/kg, po; format: ADME, organism-based
# [7] = Drug level in C57B16 mouse brain at 10 mg/kg, ip after 2 hrs; format: ADME, organism-based; design: dose 10 mg/kg, route intraperitoneal; conditions: read-out: Drug uptake
# [8] = Plasma concentration in C57B16 mouse at 10 mg/kg, ip after 2 hrs; format: ADME, organism-based; design: dose 10 mg/kg, route intraperitoneal
# Sequence of Mitogen-activated protein kinase 8 (P45983 whole entry): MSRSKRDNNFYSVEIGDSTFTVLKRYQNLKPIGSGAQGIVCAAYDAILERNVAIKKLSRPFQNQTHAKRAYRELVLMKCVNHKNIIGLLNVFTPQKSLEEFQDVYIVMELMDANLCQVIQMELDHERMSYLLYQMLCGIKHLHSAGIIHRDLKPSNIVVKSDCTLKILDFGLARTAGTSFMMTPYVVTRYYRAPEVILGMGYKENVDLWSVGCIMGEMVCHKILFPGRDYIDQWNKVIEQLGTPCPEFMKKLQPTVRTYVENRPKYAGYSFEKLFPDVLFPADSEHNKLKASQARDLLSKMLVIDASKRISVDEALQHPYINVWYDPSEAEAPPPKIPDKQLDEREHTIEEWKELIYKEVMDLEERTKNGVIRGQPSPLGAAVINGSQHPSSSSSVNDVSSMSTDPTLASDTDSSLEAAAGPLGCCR
# Sequence of Mitogen-activated protein kinase 10 (P53779 whole entry): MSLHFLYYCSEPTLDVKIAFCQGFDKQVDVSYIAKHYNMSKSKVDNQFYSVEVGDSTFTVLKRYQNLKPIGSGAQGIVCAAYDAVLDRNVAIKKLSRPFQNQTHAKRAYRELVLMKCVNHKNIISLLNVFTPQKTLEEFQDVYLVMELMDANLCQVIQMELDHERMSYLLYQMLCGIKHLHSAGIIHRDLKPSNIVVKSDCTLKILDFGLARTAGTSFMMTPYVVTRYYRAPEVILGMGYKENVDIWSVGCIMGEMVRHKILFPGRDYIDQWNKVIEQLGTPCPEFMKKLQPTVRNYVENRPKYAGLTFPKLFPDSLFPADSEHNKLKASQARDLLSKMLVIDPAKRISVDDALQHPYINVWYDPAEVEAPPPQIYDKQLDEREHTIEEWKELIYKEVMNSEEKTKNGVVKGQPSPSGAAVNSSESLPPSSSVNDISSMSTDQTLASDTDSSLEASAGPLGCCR
SMILES,IC50 [1],IC50 [2],other results
NC(=O)c1ccccc1Nc1ccnc(Oc2ccccc2)c1,520 nM,330 nM,–
COc1ccc(Oc2cc(Nc3cc(OC)ccc3C(N)=O)c(C(F)(F)F)cn2)cc1,17 nM,–,–
CC(C)(C)Oc1ccc(Oc2cc(Nc3ccccc3C(N)=O)c(C(F)(F)F)cn2)cc1,27 nM,22 nM,–
COc1cccc(Oc2cc(Nc3ccccc3C(N)=O)c(C(F)(F)F)cn2)c1,70 nM,38 nM,–
NC(=O)c1ccccc1Nc1cc(Oc2ccc3ccccc3c2)ncc1C(F)(F)F,320 nM,–,–
COc1ccccc1Oc1cc(Nc2ccccc2C(N)=O)c(C(F)(F)F)cn1,3500 nM,3200 nM,–
COc1ccc(Oc2cc(Nc3ccccc3C(N)=O)c(Cl)cn2)cc1,15 nM,8 nM,bioavailability [3]: 90%; half-life [4]: 1 h; concentration at 2 h [7]: 1.8 µM; AUC [5]: 6.3 µM·h; clearance [6]: 13 mL/min/kg; concentration at 2 h [8]: 2.4 µM
CCCOc1ccc(Oc2cc(Nc3ccccc3C(N)=O)c(C(F)(F)F)cn2)cc1,140 nM,100 nM,–
COc1ccc(Oc2cc(Nc3cc(Cl)ccc3C(N)=O)c(C(F)(F)F)cn2)cc1,78 nM,–,–
COc1ccc(Oc2cc(Nc3ccccc3-c3nnc[nH]3)c(Cl)cn2)cc1,140 nM,120 nM,–
NC(=O)c1ccccc1Nc1cc(Oc2ccc(Cl)c(Cl)c2)ncc1C(F)(F)F,100 nM,680 nM,–
COc1ccc(Oc2cc(N(C)c3ccccc3C(N)=O)c(Cl)cn2)cc1,–,> 20000 nM,–
NC(=O)c1ccccc1Nc1cc(Oc2ccc(-c3cccnc3)cc2)ncc1C(F)(F)F,72 nM,53 nM,–
COc1ccc(Oc2cc(Nc3ccc(Cl)cc3C(N)=O)c(C(F)(F)F)cn2)cc1,30 nM,–,–
COc1ccc(Oc2cc(Nc3cc(F)ccc3C(N)=O)c(C(F)(F)F)cn2)cc1,49 nM,–,–
NC(=O)c1ccccc1Nc1cc(Oc2cccc3ccccc23)ncc1C(F)(F)F,990 nM,650 nM,–
COc1ccc(Oc2cc(Nc3ccccc3C(N)=O)c(F)cn2)cc1,48 nM,26 nM,–
CCOc1ccc(Oc2cc(Nc3ccccc3C(N)=O)c(C(F)(F)F)cn2)cc1,110 nM,35 nM,–

# Further compounds by falling IC50 [1], results first:
IC50 [1],IC50 [2],SMILES,other results
2200 nM,–,COc1ccc(Oc2cc(Nc3cccc(Cl)c3C(N)=O)c(C(F)(F)F)cn2)cc1,–
2200 nM,–,COc1ccc(Oc2cc(Nc3cccc(OC)c3C(N)=O)c(C(F)(F)F)cn2)cc1,–
380 nM,480 nM,NC(=O)c1ccccc1Nc1cc(Oc2ccc(Br)cc2)ncc1C(F)(F)F,–
200 nM,–,NC(=O)c1ccccc1Nc1cc(Oc2cccc(Cl)c2)ncc1C(F)(F)F,–
200 nM,100 nM,NC(=O)c1ccccc1Nc1cc(Oc2ccc(F)cc2)ncc1C(F)(F)F,–
170 nM,930 nM,CNC(=O)c1ccccc1Nc1cc(Oc2ccc(OC)cc2)ncc1Cl,–
160 nM,–,COc1ccc(Oc2cc(Nc3c(Cl)cccc3C(N)=O)c(C(F)(F)F)cn2)cc1,–
100 nM,740 nM,COc1ccc(Oc2cc(Nc3ccccc3C(N)=O)c(C(F)(F)F)cn2)c(Cl)c1,–
80 nM,–,NC(=O)c1ccccc1Nc1cc(Oc2ccc(-n3cncn3)cc2)ncc1C(F)(F)F,bioavailability [3]: 73%; half-life [4]: 1 h; concentration at 2 h [7]: 2.5 µM; AUC [5]: 9.1 µM·h; clearance [6]: 6 mL/min/kg; concentration at 2 h [8]: 15.7 µM
70 nM,310 nM,NC(=O)c1ccccc1Nc1ccnc(Oc2ccc(N3CCNCC3)cc2)c1,bioavailability [3]: 14%; half-life [4]: 1.5 h; AUC [5]: 0.3 µM·h; clearance [6]: 38 mL/min/kg
60 nM,–,COc1ccc(Oc2cc(Nc3c(F)cccc3C(N)=O)c(C(F)(F)F)cn2)cc1,–
48 nM,44 nM,NC(=O)c1ccccc1Nc1cc(Oc2ccc3c(c2)OCO3)ncc1C(F)(F)F,–
45 nM,–,COc1ccc(Oc2cc(Nc3ccc(F)cc3C(N)=O)c(C(F)(F)F)cn2)cc1,–
37 nM,27 nM,COc1ccc(Oc2cc(Nc3ccccc3C(N)=O)c(C(F)(F)F)cn2)cc1,bioavailability [3]: 79%; half-life [4]: 1 h; concentration at 2 h [7]: 5.2 µM; AUC [5]: 20.1 µM·h; clearance [6]: 3 mL/min/kg; concentration at 2 h [8]: 10 µM
35 nM,35 nM,NC(=O)c1ccccc1Nc1cc(Oc2ccc(OC(F)(F)F)cc2)ncc1C(F)(F)F,–
34 nM,–,NC(=O)c1ccccc1Nc1cc(Oc2ccc(N3CCNCC3)cc2)ncc1C(F)(F)F,–
7 nM,4 nM,COc1ccc(Oc2ncc(Cl)c(Nc3ccccc3C(N)=O)n2)cc1,bioavailability [3]: 25%; half-life [4]: 0.5 h; AUC [5]: 1 µM·h; clearance [6]: 22 mL/min/kg
